Results on 3 molecules are retold here after patent publication US20130102580A1, “COMPOSITIONS AND METHODS RELATED TO DEOXYCHOLIC ACID AND ITS POLYMORPHS” (Kythera Biopharmaceuticals, Inc., priority 2011, published 2013).

Holding throughout (type): physicochemical
The nature of series [1]: Drying experiments: form conversion and stability on drying under vacuum (XRPD, HPLC). The following applies: for Degradation by HPLC after drying: dried further for 24 hours. The method, then: Conversion of Form C to Form B was evaluated at 40° C. under vacuum. Two different lots of 215 mg and 134 mg of Form C were dried under vacuum at 40° C.
To evaluate the stability of DCA Form B at 50° C. and 70° C., two lots of Form C were dried at 50° C. and 70° C. for 2 hours. […] The samples were dried further for 24 hours and retained for HPLC analysis.
Another drying study was performed to evaluate the stability of Form B DCA dried at 50° C. with deionized water (DI-water) and EtOH. Samples of DCA (2.0 g) were combined with DI water and EtOH. The samples were then dried under vacuum for an extended period of time at 50° C.
The form conversion of Form C to Form B at approximately 45° C. under vacuum was analyzed by XRPD every 20 minutes. FIG. 4 graphically illustrates the conversion of the Form C to Form B upon heating.
All the experiments were cooled at 10° C./h to 20° C. and left to stir overnight. A final portion of deionized water (Water #3) was added and the mixtures were stirred for 3 hours.

Series [2] can be described thus: Slurry stability in EtOH/water (XRPD). The method, then: To evaluate form stability under slurry conditions, Forms A and B were slurried in about 1:1.2 v/v EtOH/water at ambient temperature and at 50° C. […] Approximately 217 mg of DCA Form B was mixed with 1.5 mL of EtOH/water (1:2.37 v/v). The mixture was heated at 50° C. with stirring for 2 hours and an aliquot was filtered to isolate wet solids for XRPD analysis.

Another series in a line: Humidity stress (XRPD). As to the method:
Approximately 15 mg of Form B lot was stored at 95% relative humidity (RH) at ambient temperature. […] This surprising humidity/temperature stability of Form B was further evidenced from the following experiments. Form B samples were stored at 95% relative humidity (RH) and ambient temperature, and at 75% RH and 40° C. […] The increase of water content appeared to reach a plateau after an initial water sorption period.

The nature of series [3]: Form conversions via heating (XRPD). As to the method: 20 mg of DCA Form B was weighed in an alumina crucible and heated from 30° C. to 150° C. at a ramp rate of 10° C./min and then held at 150° C. for 30 minutes. The material was cooled to ambient temperature rapidly on the instrument and analyzed by XRPD.
19 mg of DCA Form B was weighed in an alumina crucible and heated from 30° C. to 135° C. at a ramp rate of 10° C./min and then held at 135° C. for 30 minutes. The material was cooled to ambient temperature rapidly on the instrument and analyzed by XRPD.

[4] abbreviates: about 1:1.2 v/v EtOH/water, ambient temperature.

For `C[C@H](CCC(=O)O)[C@H]1CC[C@H]2[C@@H]3CC[C@@H]4C[C@H](O)CC[C@]4(C)[C@H]3C[C@H](O)[C@]12C` [Form C, deoxycholic acid], the “Polymorphic form by XRPD after drying” value is reported as “form conversion to Form B was complete” in series [1] (dried at 50° C., 2 hours); “form conversion to Form B was complete” in series [1] (dried at 70° C., 2 hours); “converted to Form B” in series [1] (under vacuum at 40° C., 2 hours, two lots); “complete conversion to Form B” in series [1] (under vacuum at 40° C., 18 hours); “converted to Form B” in series [1] (under vacuum at 65° C., 60 hours, solids crystallized from EtOH/water).
For `C[C@H](CCC(=O)O)[C@H]1CC[C@H]2[C@@H]3CC[C@@H]4C[C@H](O)CC[C@]4(C)[C@H]3C[C@H](O)[C@]12C` [Form B, deoxycholic acid], the “Degradation by HPLC after drying” value in series [1] (50° C.) and in series [1] (70° C.) was “no degradation” throughout. Moreover, in series [1] (heating up to 70° C.), the “Stability to prolonged heating” value is “stable to prolonged heating at up to 70 °C”. The “Stability by HPLC when dried with DI-water and EtOH” value in series [1] (under vacuum, extended period, 50° C.) is “stable”. Also, the “Form conversion on slurrying (XRPD)” value is listed as “remained to be Form B” in series [2] (EtOH/water 1:2.37 v/v, 50° C., 4 hours); “afforded Form C” in series [2] (about 1:1.2 v/v EtOH/water, 50° C., 2 hours); “did not show any form conversion” in series [2] (setting [4]). Besides, the “Form conversion under humidity stress (XRPD)” value in “Humidity stress (XRPD)” (75% RH, 40° C., 11 days) is “no form conversion”; in the series “Humidity stress (XRPD)” (95% RH, ambient temperature, 10 days) it was “no conversion to Form C”; in the series “Humidity stress (XRPD)” (95% RH, ambient temperature, 11 days) it was “no form conversion”. Moreover, the “Form conversion on heating (XRPD)” value in series [3] (30° C. to 135° C. at 10° C./min, held at 135° C. for 30 minutes) is “complete conversion to Form D”; in series [3] (30° C. to 150° C. at 10° C./min, held at 150° C. for 30 minutes) it was “complete conversion to Form A”.
`C[C@H](CCC(=O)O)[C@H]1CC[C@H]2[C@@H]3CC[C@@H]4C[C@H](O)CC[C@]4(C)[C@H]3C[C@H](O)[C@]12C` [Form A, deoxycholic acid]: the “Form conversion on slurrying (XRPD)” value in series [2] (setting [4]) is given as “converted to Form C”. The “Relative thermodynamic stability of the polymorphs” value in series [3] (conversions observed upon heating: C→B→D→A) was “most thermodynamically stable polymorph”.
